Measurements as given in patent publication US20220017512A1 (SHANGHAI ENNOVABIO PHARMACEUTICALS CO., LTD., priority 2018, published 2022).
Where a name gives a salt, the structure may show the parent alone.

Columns and labels:
Type in all cases: biochemical
Recombinant human TRKA = molecular target: T1, Recombinant human TRKA (Homo sapiens, UniProt P04629); experiment: In vitro activity test on TRKA kinase (HTRF KinEASE TK); conditions: 14.68 μM ATP, 40 min
T1 construct: purchased Carna Biosciences
T1 sequence (P04629 33-796): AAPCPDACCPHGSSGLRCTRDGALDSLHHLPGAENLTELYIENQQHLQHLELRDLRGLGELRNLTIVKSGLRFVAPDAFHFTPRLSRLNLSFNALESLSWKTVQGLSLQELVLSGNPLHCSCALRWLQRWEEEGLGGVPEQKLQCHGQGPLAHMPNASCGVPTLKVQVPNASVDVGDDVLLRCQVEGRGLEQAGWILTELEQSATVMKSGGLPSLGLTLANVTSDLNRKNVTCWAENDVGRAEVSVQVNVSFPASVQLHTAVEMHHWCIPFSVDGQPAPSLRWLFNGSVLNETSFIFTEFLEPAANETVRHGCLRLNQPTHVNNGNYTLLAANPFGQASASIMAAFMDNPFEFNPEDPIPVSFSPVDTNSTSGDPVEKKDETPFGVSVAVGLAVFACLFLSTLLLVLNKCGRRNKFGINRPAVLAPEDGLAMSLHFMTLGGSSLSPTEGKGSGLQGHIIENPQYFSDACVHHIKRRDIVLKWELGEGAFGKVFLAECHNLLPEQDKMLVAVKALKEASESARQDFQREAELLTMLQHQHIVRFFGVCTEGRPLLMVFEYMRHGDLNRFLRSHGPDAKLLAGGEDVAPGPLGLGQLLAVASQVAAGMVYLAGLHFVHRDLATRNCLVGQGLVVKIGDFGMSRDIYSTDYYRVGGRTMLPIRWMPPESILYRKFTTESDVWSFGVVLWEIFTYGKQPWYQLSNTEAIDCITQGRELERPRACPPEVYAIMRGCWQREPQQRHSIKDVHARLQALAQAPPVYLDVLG
In short: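 Reaction: 0.2 ng/μL TRKA, 1 μM biotinylated TK substrate, 14.68 μM ATP, 5 mM MgCl2, 1 mM DTT, 1% DMSO, 40 min at room temperature. Compounds tested at 1 μM to 0.05 nM (10-point, 3-fold, duplicate). HTRF 665/620 ratio converted to % inhibition versus no-compound control; IC50 by 4-parameter fit.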

Recombinant human TRKB = molecular target: T2, Recombinant human TRKB (Homo sapiens, UniProt Q16620); experiment: In vitro activity test on TRKB kinase (HTRF KinEASE TK); conditions: 4.77 μM ATP, 50 min
T2 construct: purchased Carna Biosciences
T2 sequence (Q16620 32-822): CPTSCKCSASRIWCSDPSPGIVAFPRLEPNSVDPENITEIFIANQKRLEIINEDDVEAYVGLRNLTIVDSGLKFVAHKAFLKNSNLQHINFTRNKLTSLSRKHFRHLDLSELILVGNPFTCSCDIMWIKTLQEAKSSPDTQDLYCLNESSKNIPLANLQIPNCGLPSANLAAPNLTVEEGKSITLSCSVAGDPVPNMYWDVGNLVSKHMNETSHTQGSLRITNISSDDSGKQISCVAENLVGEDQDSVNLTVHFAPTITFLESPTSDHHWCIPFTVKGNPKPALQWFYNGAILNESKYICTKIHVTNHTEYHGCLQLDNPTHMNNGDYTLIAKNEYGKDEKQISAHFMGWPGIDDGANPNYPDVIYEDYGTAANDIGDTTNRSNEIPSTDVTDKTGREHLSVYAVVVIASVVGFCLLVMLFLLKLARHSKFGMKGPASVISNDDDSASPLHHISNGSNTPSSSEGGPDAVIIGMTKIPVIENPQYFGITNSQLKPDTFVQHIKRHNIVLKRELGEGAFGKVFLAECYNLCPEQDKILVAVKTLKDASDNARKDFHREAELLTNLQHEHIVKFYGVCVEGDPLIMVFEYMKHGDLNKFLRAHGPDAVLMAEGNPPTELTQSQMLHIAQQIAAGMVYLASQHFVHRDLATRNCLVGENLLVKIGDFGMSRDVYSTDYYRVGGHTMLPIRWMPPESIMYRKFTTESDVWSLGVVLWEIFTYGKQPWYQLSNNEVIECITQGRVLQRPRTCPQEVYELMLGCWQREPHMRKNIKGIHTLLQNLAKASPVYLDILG
In short: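 Recombinant human TRKB (0.037 ng/μL) phosphorylated 1 μM biotinylated TK substrate at 4.77 μM ATP, 5 mM MgCl2, 1% DMSO, 50 min at room temperature; compounds 1 μM–0.05 nM. HTRF KinEASE detection overnight; 665/620 ratio converted to inhibition and IC50 from 4-parameter fit.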

Recombinant human TRKC = molecular target: T3, Recombinant human TRKC (Homo sapiens, UniProt Q16288); experiment: In vitro activity test on TRKC kinase (HTRF KinEASE TK); conditions: 25.64 μM ATP, 40 min
T3 construct: purchased Carna Biosciences
T3 sequence (Q16288 32-839): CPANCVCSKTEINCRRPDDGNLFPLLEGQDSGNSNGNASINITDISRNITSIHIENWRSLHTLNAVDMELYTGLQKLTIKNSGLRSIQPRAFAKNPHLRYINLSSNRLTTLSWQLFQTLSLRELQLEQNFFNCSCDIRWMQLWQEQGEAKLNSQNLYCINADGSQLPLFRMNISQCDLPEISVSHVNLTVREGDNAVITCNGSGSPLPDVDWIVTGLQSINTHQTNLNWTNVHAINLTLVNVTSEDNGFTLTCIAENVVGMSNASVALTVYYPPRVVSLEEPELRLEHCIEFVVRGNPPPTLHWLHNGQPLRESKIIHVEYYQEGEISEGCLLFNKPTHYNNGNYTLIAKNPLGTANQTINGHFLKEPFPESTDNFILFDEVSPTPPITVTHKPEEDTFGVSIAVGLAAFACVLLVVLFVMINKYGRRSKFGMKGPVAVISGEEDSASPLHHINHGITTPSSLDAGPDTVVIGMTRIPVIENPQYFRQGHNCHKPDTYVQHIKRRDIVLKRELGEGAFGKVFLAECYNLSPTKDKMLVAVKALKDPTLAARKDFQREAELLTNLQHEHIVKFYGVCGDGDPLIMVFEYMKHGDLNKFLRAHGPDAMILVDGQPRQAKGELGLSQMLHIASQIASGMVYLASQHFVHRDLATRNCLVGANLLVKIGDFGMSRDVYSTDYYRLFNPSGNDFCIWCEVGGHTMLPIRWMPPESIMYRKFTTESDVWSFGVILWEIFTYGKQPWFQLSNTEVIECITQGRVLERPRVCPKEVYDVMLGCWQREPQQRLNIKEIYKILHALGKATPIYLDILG
In short: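 Recombinant human TRKC (0.037 ng/μL) with 1 μM biotinylated TK substrate, 25.64 μM ATP, 5 mM MgCl2, 1 mM DTT, 40 min at room temperature; compound 1 μM to 0.05 nM, 1% DMSO. HTRF 665/620 ratio after overnight detection; IC50 from 4-parameter fit.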

[1] = molecular target: T4, recombinant human TRKA (G667C) (Homo sapiens, UniProt P04629, G667C); experiment: In vitro activity test on mutant TRKA (G667C) (HTRF KinEASE TK); conditions: 5.5 μM ATP, 30 min
T4 construct: purchased SignalChem
T4 sequence (P04629 33-796 G667C): as the sequence (P04629 33-796) above, with G635C counted along it
Description: Biological Test Example 2 In Vitro Activity Test on Mutant TRKA (G595R), TRKA (G667C) and TRKC (G623R)
The recombinant human TRKA (G595R), TRKA (G667C) and TRKC (G623R) proteins were purchased from SignalChem. HTRF kinEASE TK kit was purchased from CisbioBioassays. Synergy Neo 2 of Biotek was used to read the plate.
The tested compound was subjected to 4-fold serial dilution to reach a final concentration of 1 μM to 0.004 nM (10 concentrates), duplicates for each concentration; and 1% DMSO was present in the detection reaction.
0.026 ng/μL TRKA (G667C) kinase, 1 μM TK Substrate-biotin polypeptide substrate, 5.5 μm ATP, 1× enzymatic buffer, 5 mM MgCl2, and 1 mM DTT. The detection plate was White Proxiplate 384-Plus plate (PerkinElmer), and incubated at room temperature for 30 min, the assay volume was 10 μL.
10 μL of detection reagent was added to the plate (containing 0.125 μM SA-XL665 and 5 μL 1×TK-Antibody) and incubated overnight at room temperature, and Synergy Neo 2 was used to read the plate.
The value of 665/620 Ratio minus the value of negative control wells without enzyme, then the obtained value was converted according to the following formula into inhibition rate (%)=(1−Ratiotest/Ratiomax)×100%. Ratiomax was a positive control without tested compound, and Ratiotest was the value of each concentration of different compounds. IC50 (nM) data was obtained by 4 parameter curve fitting (see Table 1).

[2] = molecular target: T5, recombinant human TRKA (G595R) (Homo sapiens, UniProt P04629, G595R); experiment: In vitro activity test on mutant TRKA (G595R) (HTRF KinEASE TK); conditions: 4.5 μM ATP, 30 min
T5 construct: purchased SignalChem
T5 sequence (P04629 33-796 G595R): as the sequence (P04629 33-796) above, with G563R counted along it
In short: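 HTRF KinEASE TK format: 0.12 ng/μL recombinant TRKA (G595R), 1 μM biotinylated TK substrate, 4.5 μM ATP, 5 mM MgCl2, 1 mM DTT, 1% DMSO, 30 min at room temperature; detection overnight. IC50 from 10-point 4-fold series (1 μM to 0.004 nM, duplicates), 665/620 ratio, 4-parameter fit.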

Row | IC50 (Recombinant human TRKA) | IC50 (Recombinant human TRKB) | IC50 (Recombinant human TRKC) | IC50 [1] | IC50 [2] | Compound
1 | < 1 nM | < 1 nM | < 1 nM | < 10 nM | < 10 nM | CC1(O)CC(n2cc(-c3c(Cl)cnc4ccc(N5C[C@@H](F)C[C@@H]5c5cc(F)ccc5F)nc34)cn2)C1 (stereo partly drawn) [Example 39, 3-(4-(3-chloro-6-((2R,4S)-2-(2,5-difluorophenyl)-4-fluoropyrrolidin-1-yl)-1,5-naphthyridin-4-yl)-1H-pyrazol-1-yl)-1-methylcyclobutan-1-ol]
2 | < 1 nM | < 1 nM | < 1 nM | < 10 nM | < 1 nM | CN1CCC(n2cc(-c3ccnc4ccc(N5C[C@@H](F)C[C@@H]5c5cc(F)ccc5F)nc34)cn2)CC1 [Example 13, 2-((2R,4S)-2-(2,5-difluorophenyl)-4-fluoropyrrolidin-1-yl)-8-(1-(1-methylpiperidin-4-yl)-1H-pyrazol-4-yl)-1,5-naphthyridine]
3 | < 1 nM | < 1 nM | < 10 nM | < 10 nM | < 10 nM | O=C(Nc1c(Cl)cnc2ccc(N3C[C@@H](F)C[C@@H]3c3cc(F)ccc3F)nc12)N1CC[C@H](O)C1 [Example 49, (S)-N-(3-Chloro-6-((2R,4S)-2-(2,5-difluorophenyl)-4-fluoropyrrolidin-1-yl)-1,5-naphthyridin-4-yl)-3-hydroxypyrrolidin-1-carboxamide]
4 | < 1 nM | < 1 nM | < 1 nM | < 1 nM | < 1 nM | Fc1ccc(F)c([C@H]2C[C@H](F)CN2c2ccc3nccc(-c4cnn(C5CCNCC5)c4)c3n2)c1 [Example 11, 2-((2R,4S)-2-(2,5-difluorophenyl)-4-fluoropyrrolidin-1-yl)-8-(1-(piperidin-4-yl)-1H-pyrizol-4-yl)-1,5-naphthyridine]
5 | < 1 nM | < 1 nM | < 1 nM | < 10 nM | < 1 nM | O[C@H]1CCN(c2ncnc3ccc(N4C[C@@H](F)C[C@@H]4c4cc(F)ccc4F)nc23)C1 [Example 71, (S)-1-(6-((2R,4S)-2-(2,5-difluorophenyl)-4-fluoropyrrolidin-1-yl)pyrido[3,2-d]pyrimidine-4-yl)pyrrolidin-3-ol]
6 | < 1 nM | < 1 nM | < 1 nM | < 10 nM | < 1 nM | O[C@H]1CCN(c2ccc(-c3ncnc4ccc(N5C[C@@H](F)C[C@@H]5c5cc(F)ccc5F)nc34)cn2)C1 [Example 75, (S)-1-(5-(6-((2R,4S)-2-(2,5-difluorophenyl)-4-fluoropyrrolidin-1-yl)pyrido[3,2-d]pyrimidin-4-yl)pyridin-2-yl)pyrrolidin-3-ol]
7 | < 1 nM | < 1 nM | < 1 nM | < 10 nM | < 10 nM | CC(C)(O)Cn1cc(-c2c(Cl)cnc3ccc(N4C[C@@H](F)C[C@@H]4c4cc(F)ccc4F)nc23)cn1 [Example 35, 1-(4-(3-chloro-6-((2R,4S)-2-(2,5-difluorophenyl)-4-fluoropyrrolidin-1-yl)-1,5-naphthyridin-4-yl)-1H-pyrazol-1-yl)-2-methylpropan-2-ol]
8 | < 1 nM | < 1 nM | < 1 nM | < 10 nM | < 10 nM | O[C@H]1CCN(c2cnn(-c3ncnc4ccc(N5C[C@@H](F)C[C@@H]5c5cc(F)ccc5F)nc34)c2)C1 [Example 70, (S)-1-(1-(6-((2R,4S)-2-(2,5-difluorophenyl)-4-fluoropyrrolidin-1-yl)pyrido[3,2-d]pyrimidin-4-yl)-1H-pyrazol-4-yl)pyrrolidin-3-ol]
9 | < 1 nM | < 1 nM | < 1 nM | < 10 nM | < 10 nM | Fc1ccc(F)c([C@H]2C[C@H](F)CN2c2ccc3ncc(Cl)c(-c4ccn(C5CCNCC5)c4)c3n2)c1 [Example 48, 7-chloro-2-((2R,4S)-2-(2,5-difluorophenyl)-4-fluoropyrrolidin-1-yl)-8-(1-(piperidin-4-yl)-1H-pyrrol-3-yl)-1,5-naphthyridine]
10 | < 1 nM | < 10 nM | < 50 nM | < 10 nM | < 10 nM | COc1ccc(F)cc1[C@H]1CCCN1c1ccc2ncc(Cl)c(-c3cnn(C4CCNCC4)c3)c2n1 [Example 33, (R)-7-chloro-2-(2-(5-fluoro-2-methoxyphenyl)pyrrolidin-1-yl)-8-(1-(piperidin-4-yl)-1H-pyrazol-4-yl)-1,5-naphthyridine]
11 | < 1 nM | < 1 nM | < 1 nM | < 1 nM | < 10 nM | O=S1(=O)CCC(n2cc(-c3c(Cl)cnc4ccc(N5C[C@@H](F)C[C@@H]5c5cc(F)ccc5F)nc34)cn2)CC1 [Example 47, 4-(4-(3-chloro-6-((2R,4S)-2-(2,5-difluorophenyl)-4-fluoropyrrolidin-1-yl)-1,5-naphthyridin-4-yl)-1H-pyrazol-1-yl)tetrahydro-2H-thiopyran 1,1-dioxide]
12 | < 1 nM | < 50 nM | < 1 nM | < 10 nM | < 10 nM | Fc1ccc(F)c([C@H]2C[C@H](F)CN2c2ccc3ncnc(-c4cnn(CC5CNC5)c4)c3n2)c1 [Example 59, 4-(1-(azetidin-3-ylmethyl)-1H-pyrazol-4-yl)-6-((2R,4S)-2-(2,5-difluorophenyl)-4-fluoropyrrolidin-1-yl)pyrido[3,2-d]pyrimidine HCOOH salt]
13 | < 1 nM | < 10 nM | < 10 nM | < 10 nM | < 10 nM | Fc1ccc(F)c([C@H]2C[C@H](F)CN2c2ccc3ncc(F)c(-c4noc(C5CCNCC5)n4)c3n2)c1 [Example 73, 3-(6-((2R,4S)-2-(2,5-difluorophenyl)-4-fluoropyrrolidin-1-yl)-3-fluoro-1,5-naphthyridin-4-yl)-5-(piperidin-4-yl)-1,2,4-oxadiazole]
14 | < 1 nM | < 1 nM | < 1 nM | < 1 nM | < 1 nM | Fc1ccc(F)c([C@H]2C[C@H](F)CN2c2ccc3nccc(-c4cnn(C5CCOCC5)c4)c3n2)c1 [Example 12, 2-((2R,4S)-2-(2,5-difluorophenyl)-4-fluoropyrrolidin-1-yl)-8-(1-(tetrahydro-2H-pyran-4-yl)-1H-pyrazol-4-yl)-1,5-naphthyridine]
15 | < 1 nM | < 1 nM | < 1 nM | < 10 nM | < 1 nM | Fc1ccc(F)c([C@H]2C[C@H](F)CN2c2ccc3ncnc(-n4cc(C5CCNCC5)cn4)c3n2)c1 [Example 78, 6-((2R,4S)-2-(2,5-difluorophenyl)-4-fluoropyrrolidin-1-yl)-4-(4-(piperidin-4-yl)-1H-pyrazol-1-yl)pyrido[3,2-d]pyrimidine]
16 | < 1 nM | < 10 nM | < 10 nM | < 100 nM | < 10 nM | CN(C)S(=O)(=O)n1cc(-c2c(Cl)cnc3ccc(N4C[C@@H](F)C[C@@H]4c4cc(F)ccc4F)nc23)cn1 [Example 31]
17 | < 1 nM | < 10 nM | < 10 nM | < 10 nM | < 1 nM | COc1ncc(F)cc1[C@H]1CCCN1c1ccc2ncc(Cl)c(-c3cnn(C4CCNCC4)c3)c2n1 [Example 30, (R)-7-chloro-2-(2-(5-fluoro-2-methoxypyridin-3-yl)pyrrolidin-1-yl)-8-(1-(piperidin-4-yl)-1H-pyrazol-4-yl)-1,5-naphthyridine]
